Source: publication PMC3511023, “Peptides presenting the binding site of human CD4 for the HIV-1 envelope glycoprotein gp120” (Beilstein Journal of Organic Chemistry, 2012)
“Also recorded” adds a separate entry of the source. Bridges are numbered along the chain shown (N, C = ends). Where no end group is shown, it is not given here. [ ]: non-standard residue; d: D form.

What follows are substances tested on recombinant gp120 from HIV-1 strain IIIB (assay: Direct ELISA: binding of gp120 to His-tagged peptides on Ni-chelate plates). Conditions: peptide coated at 4 µM on Ni-chelate plates; gp120(IIIB) 0.25 µg/mL, 2 h; absorbance at 492 nm, blank-corrected; Ar relative to CD4-M1 = 1; at least twice, each in duplicate.
Protocol: Antibody buffer: Phosphate buffer pH 7.2 containing 1% BSA and 0.1% Tween 20. The wells of 96-well Ni-Chelate plates from Thermo Scientific were coated overnight at 4 °C with peptide solution (100 µL, 4 µM in coupling buffer). After unspecific binding had been blocked with a blocking buffer (1 h at room temperature, gentle agitation), the plates were washed twice. Plates were then incubated for 2 h with 100 µL/well gp120(IIIB) from ImmunoDiagnostics at 0.25 µg/mL (Figure 3, left), or in serial dilutions starting at 2 µg/mL (Figure 3, right) in sample buffer, and washed four times. Following incubation with 100 µL/well sheep-anti-HIV-1-gp120 (D7324) from Aalto Bio Reagents (1:5000 in antibody buffer) for 1 h at room temperature, plates were washed four times with washing buffer, incubated for 1 h at room temperature with 100 µL/well rabbit-anti-sheep-IgG peroxidase conjugate from Dianova (diluted 1:5000 with antibody buffer), and washed four times with washing buffer. Plates were developed with 100 µL/well substrate solution (1 mg/mL OPD in 0.03% H2O2/H2O) in the dark (approx. 20 min), and the reaction was stopped by addition of 2 M sulfuric acid (50 µL/well). Absorbances (A) were read at 492 nm by using a multichannel photometer (Infinite F200 from Tecan).
Relative Affinities (Ar) were calculated according to the following formula:
Ar = (Apeptide – Ablank) / (A1– Ablank)

Substance | binding to gp120(IIIB) (relative affinity Ar)
CD4-M1: His6-tagged linear peptide presenting CD4 residues 22–64 | is recognized by gp120
CD4-M2: His6-tagged cyclic (disulfide) peptide, CD4 residues 22–64, S23C, D63C | strongly enhanced
CD4-M3: CD4 residues 22–64, cyclic, F43A, R58A, R59A, S23C, D63C | largely abrogated; also recorded: complete loss of binding
CD4-M4: His6-tagged linear peptide presenting the CDR2-like loop of CD4, residues 34–48 (His6-IKILGNQGSFLTKGP) | only the longer peptide CD4-M1 is recognized by gp120
CD4-M5: CD4 residues 34–48, cyclic through a disulfide between added cysteines (His6-CIKILGNQGSFLTKGPC; disulfide 1-17 (inferred)) | strongly enhanced
CD4-M6: CD4 residues 34–48, cyclic, F43A | largely abrogated
CD4-M7: CD4 residues 34–48, cyclic, F43-D-Phe (His6-CIKILGNQGS[dF]LTKGPC; disulfide 1-17 (inferred)) | did not bind to gp120

What follows are substances tested on gp120(MN) (assay: not given). Conditions: CD4-M5 60 µM or sCD4 0.4 µg/mL pre-incubated 10 min with gp120(MN) 0.5 µg/mL; 2 h on X5-coated plate; absorbance at 492 nm; at least twice, each in duplicate.

Substance | enhancement of binding of gp120(MN) to the CD4i antibody X5
CD4-M5: CD4 residues 34–48, cyclic through a disulfide between added cysteines (His6-CIKILGNQGSFLTKGPC; disulfide 1-17 (inferred)) | able to enhance binding of gp120 to the CD4i antibody mAb X5
